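Tested at 5 concentrations; 48 h exposure; 96-well plates; endpoints linearly interpolated, else capped at highest concentration. Abbreviation: GI50, concentration required for 50% inhibition of growth.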 The source made the active and inactive calls. No stated cut-off is given here; in the data, active = GI50 up to about 1.1 µM and inactive = higher.
Key:
Assay in all cases: NCI tumour cell line growth inhibition, 48 h
ACHN = test system: ACHN
A498 = test system: A498
HOP-92 = test system: HOP-92
SK-MEL-2 = test system: SK-MEL-2
OVCAR-8 = test system: OVCAR-8
OVCAR-5 = test system: OVCAR-5
CAKI-1 = test system: CAKI-1
SNB-19 = test system: SNB-19
UO-31 = test system: UO-31
SF-539 = test system: SF-539
CCRF-CEM = test system: CCRF-CEM
LXFL 529 = test system: LXFL 529
UACC-62 = test system: UACC-62
MOLT-4 = test system: MOLT-4
SR = test system: SR
SNB-75 = test system: SNB-75
NCI/ADR-RES = test system: NCI/ADR-RES
MDA-N = test system: MDA-N
PC-3 = test system: PC-3
T47D = test system: T47D

SMILES	GI50 (ACHN)	GI50 (A498)	GI50 (HOP-92)	GI50 (SK-MEL-2)	GI50 (OVCAR-8)	GI50 (OVCAR-5)	GI50 (CAKI-1)	GI50 (SNB-19)	GI50 (UO-31)	GI50 (SF-539)	GI50 (CCRF-CEM)	GI50 (LXFL 529)	GI50 (UACC-62)	GI50 (MOLT-4)	GI50 (SR)	GI50 (SNB-75)	GI50 (NCI/ADR-RES)	GI50 (MDA-N)	GI50 (PC-3)	GI50 (T47D)
O=C(CCc1cc(-c2ccccc2)nc(S)n1)N(Cc1ccccc1)Cc1ccccc1	> 100 µM (inactive)	> 100 µM (inactive)	97.3 µM (inactive)	> 100 µM (inactive)	> 100 µM (inactive)	> 100 µM (inactive)	> 100 µM (inactive)	> 100 µM (inactive)	> 100 µM (inactive)	> 100 µM (inactive)	> 100 µM (inactive)	> 100 µM (inactive)	> 100 µM (inactive)	> 100 µM (inactive)	–	–	–	–	–	–
O/N=C\C(=N/O)Nc1ccc(Cc2ccc(NC(/C=N\O)=N/O)cc2)cc1	31.6 µM (inactive)	77.4 µM (inactive)	25.8 µM (inactive)	50.7 µM (inactive)	36.1 µM (inactive)	89.9 µM (inactive)	18.8 µM (inactive)	97.9 µM (inactive)	13.2 µM (inactive)	45.2 µM (inactive)	45.4 µM (inactive)	39.4 µM (inactive)	21.2 µM (inactive)	30.8 µM (inactive)	–	–	–	–	–	–
COC1CC(OS(=O)(=O)c2ccc([N+](=O)[O-])cc2)C(OC(=O)c2ccccc2)C(C)O1 (configuration not stated)	> 100 µM (inactive)	88.7 µM (inactive)	55.2 µM (inactive)	–	> 100 µM (inactive)	> 100 µM (inactive)	> 100 µM (inactive)	> 100 µM (inactive)	–	54.6 µM (inactive)	> 100 µM (inactive)	> 100 µM (inactive)	> 100 µM (inactive)	> 100 µM (inactive)	> 100 µM (inactive)	–	–	–	–	–
NCCn1ccc(NC(c2ccccc2)(c2ccccc2)c2ccccc2)nc1=O	54.7 µM (inactive)	65.5 µM (inactive)	13.4 µM (inactive)	18.7 µM (inactive)	39.8 µM (inactive)	> 100 µM (inactive)	–	> 10 µM (inactive)	> 100 µM (inactive)	17 µM (inactive)	–	16.7 µM (inactive)	–	19 µM (inactive)	19.4 µM (inactive)	16.7 µM (inactive)	–	–	–	–
CCCOP1(=O)C=C(O)C(Cl)=C(C)C1 (configuration not stated)	> 100 µM (inactive)	–	> 100 µM (inactive)	40.6 µM (inactive)	> 100 µM (inactive)	–	–	> 100 µM (inactive)	> 100 µM (inactive)	> 100 µM (inactive)	> 100 µM (inactive)	> 100 µM (inactive)	> 100 µM (inactive)	> 100 µM (inactive)	> 100 µM (inactive)	> 100 µM (inactive)	–	–	–	–
COc1ccc(/C=N/NC(=O)CSc2nc(-c3ccccc3)c(-c3ccccc3)[nH]2)cc1OC	31.3 µM (inactive)	26.6 µM (inactive)	42.1 µM (inactive)	20.7 µM (inactive)	16.2 µM (inactive)	22 µM (inactive)	33.1 µM (inactive)	34.5 µM (inactive)	25.5 µM (inactive)	22.4 µM (inactive)	34.7 µM (inactive)	22.1 µM (inactive)	23.5 µM (inactive)	16 µM (inactive)	–	29.9 µM (inactive)	–	–	–	–
O=C1CCC(=O)C(C(=O)CCC(=O)Nc2cccc(Cl)c2)C1 (configuration not stated)	> 100 µM (inactive)	> 100 µM (inactive)	> 100 µM (inactive)	–	> 100 µM (inactive)	> 100 µM (inactive)	> 100 µM (inactive)	> 100 µM (inactive)	> 100 µM (inactive)	> 100 µM (inactive)	> 100 µM (inactive)	> 100 µM (inactive)	> 100 µM (inactive)	> 100 µM (inactive)	> 100 µM (inactive)	> 100 µM (inactive)	–	–	–	–
CCC1NC(=O)C1NC(=O)OC (configuration not stated)	> 100 µM (inactive)	> 100 µM (inactive)	> 100 µM (inactive)	> 100 µM (inactive)	> 100 µM (inactive)	> 100 µM (inactive)	> 100 µM (inactive)	> 100 µM (inactive)	> 100 µM (inactive)	> 100 µM (inactive)	> 100 µM (inactive)	–	> 100 µM (inactive)	> 100 µM (inactive)	> 100 µM (inactive)	> 100 µM (inactive)	> 100 µM (inactive)	> 100 µM (inactive)	> 100 µM (inactive)	> 100 µM (inactive)
Cc1cc(OP2(=O)NCc3ccncc3O2)ccc1Cl (configuration not stated)	> 100 µM (inactive)	> 100 µM (inactive)	> 100 µM (inactive)	> 100 µM (inactive)	> 100 µM (inactive)	> 100 µM (inactive)	> 100 µM (inactive)	> 100 µM (inactive)	> 100 µM (inactive)	> 100 µM (inactive)	44.5 µM (inactive)	–	> 100 µM (inactive)	> 100 µM (inactive)	> 100 µM (inactive)	> 100 µM (inactive)	> 100 µM (inactive)	> 100 µM (inactive)	> 100 µM (inactive)	> 100 µM (inactive)
COc1ccc(C2S/C(=C\c3ccccc3O)C(=O)N2NC(=O)Cc2ccccc2)cc1 (configuration not stated)	> 100 µM (inactive)	> 100 µM (inactive)	> 100 µM (inactive)	> 100 µM (inactive)	83.2 µM (inactive)	> 100 µM (inactive)	> 100 µM (inactive)	–	> 100 µM (inactive)	> 100 µM (inactive)	48.5 µM (inactive)	93.1 µM (inactive)	78.7 µM (inactive)	39.5 µM (inactive)	37.4 µM (inactive)	57.3 µM (inactive)	–	–	–	–
COC(=O)C(CC(=O)Nc1ccc(Cl)c(Cl)c1)C(=O)C(=O)NC1C2CC3CC(C2)CC1C3 (configuration not stated)	> 100 µM (inactive)	> 100 µM (inactive)	> 100 µM (inactive)	> 100 µM (inactive)	> 100 µM (inactive)	> 100 µM (inactive)	> 100 µM (inactive)	> 100 µM (inactive)	> 100 µM (inactive)	> 100 µM (inactive)	> 100 µM (inactive)	> 100 µM (inactive)	92.7 µM (inactive)	> 100 µM (inactive)	> 100 µM (inactive)	–	–	–	–	–
COc1ccc(C2NC3=C(CCCC3)N2)cc1	> 100 µM (inactive)	79.4 µM (inactive)	54.2 µM (inactive)	43.8 µM (inactive)	> 100 µM (inactive)	80.2 µM (inactive)	–	–	77.6 µM (inactive)	87.5 µM (inactive)	> 100 µM (inactive)	59.8 µM (inactive)	–	59.3 µM (inactive)	44.8 µM (inactive)	58.7 µM (inactive)	–	–	–	–
COC(=O)/C(=C/c1ccc(OC)cc1)C(C(=O)O)=C(C)C	–	> 100 µM (inactive)	> 100 µM (inactive)	> 100 µM (inactive)	> 100 µM (inactive)	> 100 µM (inactive)	> 100 µM (inactive)	> 100 µM (inactive)	> 100 µM (inactive)	> 100 µM (inactive)	> 100 µM (inactive)	> 100 µM (inactive)	> 100 µM (inactive)	> 100 µM (inactive)	> 100 µM (inactive)	–	–	–	–	–
CC(C)(CN1CCCCC1)C(=O)/C=C/c1c(Cl)cccc1Cl	1.49 µM (inactive)	1.57 µM (inactive)	1.05 µM (active)	1.49 µM (inactive)	2.18 µM (inactive)	1.48 µM (inactive)	1.08 µM (active)	2.44 µM (inactive)	0.971 µM (active)	2.08 µM (inactive)	0.52 µM (active)	–	1.29 µM (inactive)	0.918 µM (active)	0.42 µM (active)	0.735 µM (active)	1.86 µM (inactive)	0.792 µM (active)	1.91 µM (inactive)	0.421 µM (active)
CN(C)CCO/N=C1/C=C2CC[C@H]3[C@@H]4CC[C@H](O)[C@@]4(C)CC[C@@H]3[C@@]2(C)CC1	15.4 µM (inactive)	15.7 µM (inactive)	7.85 µM (inactive)	13.9 µM (inactive)	13.9 µM (inactive)	12.5 µM (inactive)	31.9 µM (inactive)	27.4 µM (inactive)	12.3 µM (inactive)	3.51 µM (inactive)	6.89 µM (inactive)	–	10.9 µM (inactive)	8.55 µM (inactive)	5.55 µM (inactive)	3.48 µM (inactive)	3.18 µM (inactive)	3.72 µM (inactive)	18.2 µM (inactive)	23.9 µM (inactive)
CCOC(=O)c1oc2c(OC)ccc3c2c1CCC3	> 100 µM (inactive)	> 100 µM (inactive)	86.9 µM (inactive)	> 100 µM (inactive)	> 100 µM (inactive)	> 100 µM (inactive)	–	> 100 µM (inactive)	33.6 µM (inactive)	> 100 µM (inactive)	73.3 µM (inactive)	> 100 µM (inactive)	> 100 µM (inactive)	37.1 µM (inactive)	> 100 µM (inactive)	77.6 µM (inactive)	–	–	–	–
CCOC(=O)C1S/C(=N\c2ccccc2)N=C1C (configuration not stated)	39.7 µM (inactive)	> 100 µM (inactive)	22.3 µM (inactive)	> 100 µM (inactive)	> 100 µM (inactive)	96.8 µM (inactive)	–	> 100 µM (inactive)	53.3 µM (inactive)	73.5 µM (inactive)	–	65.8 µM (inactive)	–	38.2 µM (inactive)	45.3 µM (inactive)	26.9 µM (inactive)	–	–	–	–
NC(C(=O)O)c1ccc(C(=O)O)cc1 (configuration not stated)	> 100 µM (inactive)	–	–	> 100 µM (inactive)	> 100 µM (inactive)	> 100 µM (inactive)	> 100 µM (inactive)	> 100 µM (inactive)	> 100 µM (inactive)	> 100 µM (inactive)	> 100 µM (inactive)	> 100 µM (inactive)	> 100 µM (inactive)	> 100 µM (inactive)	> 100 µM (inactive)	> 100 µM (inactive)	–	–	–	–
